From ChEMBL document CHEMBL1201862, “PubChem BioAssay data set” (2004)
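96-well plates; 48 h exposure; 5 concentrations. Endpoints by linear interpolation between flanking doses. Not reached: highest tested concentration assigned. The concentration for 50% growth inhibition is given as GI50.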 Calls of active or inactive are those of the source. Cut-off read from the data, not from the text of the source: active = GI50 up to about 1.1 µM and inactive = higher.

Assays:
Test in all cases: inhibition of tumour cell growth, NCI panel, 48 h
[1] = system: EKVX
[2] = system: SF-268
[3] = system: A549
[4] = system: Malme-3M
[5] = system: SNB-75
[6] = system: HCC 2998
[7] = system: ACHN
[8] = system: DU-145
[9] = system: NCI/ADR-RES
[10] = system: M14
[11] = system: 786-0
[12] = system: KM12
[13] = system: K562
[14] = system: HL-60
[15] = system: OVCAR-4
[16] = system: NCI-H226
[17] = system: A498
[18] = system: RPMI-8226
[19] = system: UACC-62
[20] = system: HCT-116

| Structure (SMILES) | GI50 [1] | GI50 [2] | GI50 [3] | GI50 [4] | GI50 [5] | GI50 [6] | GI50 [7] | GI50 [8] | GI50 [9] | GI50 [10] | GI50 [11] | GI50 [12] | GI50 [13] | GI50 [14] | GI50 [15] | GI50 [16] | GI50 [17] | GI50 [18] | GI50 [19] | GI50 [20] |
| --- | --- | --- | --- | --- | --- | --- | --- | --- | --- | --- | --- | --- | --- | --- | --- | --- | --- | --- | --- | --- |
| O=S(=O)(c1cc(Cl)ccc1Cl)n1ccnc1 | 61.2 µM (inactive) | 45.1 µM (inactive) | 58.2 µM (inactive) | 31.8 µM (inactive) | 41.8 µM (inactive) | 15.8 µM (inactive) | 76.7 µM (inactive) | 35.4 µM (inactive) | 20.2 µM (inactive) | 30.3 µM (inactive) | 54.2 µM (inactive) | 33.6 µM (inactive) | 34 µM (inactive) | 28.4 µM (inactive) | 43 µM (inactive) | 14.5 µM (inactive) | 31 µM (inactive) | 29 µM (inactive) | 33.1 µM (inactive) | 31.3 µM (inactive) |
| N=c1oc2ccc(Cl)cc2cc1C(=O)Nc1ccccc1 | > 59 µM (inactive) | > 76 µM (inactive) | > 100 µM (inactive) | 6.5 µM (inactive) | 23.6 µM (inactive) | 36.3 µM (inactive) | 45.8 µM (inactive) | > 100 µM (inactive) | 17.3 µM (inactive) | > 100 µM (inactive) | 10.7 µM (inactive) | 79.4 µM (inactive) | 27 µM (inactive) | > 100 µM (inactive) | > 100 µM (inactive) | > 100 µM (inactive) | > 100 µM (inactive) | > 100 µM (inactive) | > 100 µM (inactive) | > 59 µM (inactive) |
| c1ccc(C(OCCN2CC3CCC(C2)N3)c2ccccc2)cc1 | > 100 µM (inactive) | > 100 µM (inactive) | > 100 µM (inactive) | 16 µM (inactive) | 50.1 µM (inactive) | 17.8 µM (inactive) | > 100 µM (inactive) | > 100 µM (inactive) | > 100 µM (inactive) | 17.1 µM (inactive) | 41 µM (inactive) | 54 µM (inactive) | 43.8 µM (inactive) | 74.1 µM (inactive) | > 100 µM (inactive) | 45 µM (inactive) | 74 µM (inactive) | 34.1 µM (inactive) | 27.7 µM (inactive) | 40.4 µM (inactive) |
| COC(=O)C1=C(O)C(C(=O)OC)[C@]2(O)[C@H](C(=O)OC)[C@H]1C[C@@H](c1ccc(F)cc1)[C@H]2C(=O)OC (stereo not given in full) | 17.3 µM (inactive) | 23.7 µM (inactive) | 19.3 µM (inactive) | 12.9 µM (inactive) | 18.1 µM (inactive) | 14.6 µM (inactive) | 15.5 µM (inactive) | 14.8 µM (inactive) | 4.98 µM (inactive) | 10.4 µM (inactive) | 14.9 µM (inactive) | 18.1 µM (inactive) | 9.23 µM (inactive) | 2.92 µM (inactive) | 22.4 µM (inactive) | 17.3 µM (inactive) | 16.8 µM (inactive) | 16.2 µM (inactive) | 13.5 µM (inactive) | 7.19 µM (inactive) |
| COC(=O)NC1C(C)OC(OC2C/C=C(/C)C3C=CC4C(OC5CC(OC6CC(O)C(OC7CC(O)C(OC)C(C)O7)C(C)O6)C(O)C(C)O5)C(C)CC(C)C4C3(C)C(=O)C3=C(O)C4(CC(C)C(CO)=CC4/C=C\2C)OC3=O)CC1(C)[N+](=O)[O-] (stereo not given) | 5.26 µM (inactive) | 14.8 µM (inactive) | 22.6 µM (inactive) | 7.93 µM (inactive) | 19.7 µM (inactive) | 16.6 µM (inactive) | 12.6 µM (inactive) | 11.6 µM (inactive) | 69.5 µM (inactive) | 9.29 µM (inactive) | 9.93 µM (inactive) | 14.5 µM (inactive) | 4.41 µM (inactive) | 4.51 µM (inactive) | 3.48 µM (inactive) | 11.7 µM (inactive) | 15.6 µM (inactive) | 3.13 µM (inactive) | 6.37 µM (inactive) | 5.36 µM (inactive) |
| O=C(c1ccccc1)C1N=NCC1c1ccc([N+](=O)[O-])cc1 (stereo not given) | 89.1 µM (inactive) | 40.5 µM (inactive) | 37.2 µM (inactive) | 51.4 µM (inactive) | 16.7 µM (inactive) | > 100 µM (inactive) | 47.1 µM (inactive) | 18.4 µM (inactive) | 39.3 µM (inactive) | 48.9 µM (inactive) | > 100 µM (inactive) | 45.4 µM (inactive) | 32.5 µM (inactive) | 23.1 µM (inactive) | 49.2 µM (inactive) | 50.4 µM (inactive) | 39 µM (inactive) | 29.9 µM (inactive) | 49.4 µM (inactive) | 51.8 µM (inactive) |
| N#CC(=S)Nc1cccc(Cl)c1 | 41.1 µM (inactive) | 40.5 µM (inactive) | 23.8 µM (inactive) | 30.3 µM (inactive) | 23.9 µM (inactive) | 28.8 µM (inactive) | 26.2 µM (inactive) | 50.8 µM (inactive) | 30.7 µM (inactive) | 27.5 µM (inactive) | 40.5 µM (inactive) | 24.8 µM (inactive) | 19.5 µM (inactive) | 33.2 µM (inactive) | 42.4 µM (inactive) | 23.9 µM (inactive) | 34.1 µM (inactive) | 5.38 µM (inactive) | 19 µM (inactive) | 55.3 µM (inactive) |
| COc1cccc2c1C(=O)c1c(O)c3c(c(O)c1C2=O)CC(O)(C(=O)CO)CC3OC1CC(N2CCOCC2C#N)C(O)C(C)O1 (stereo not given) | < 0.0001 µM (active) | > 0.01 µM (active) | < 0.0001 µM (active) | < 0.0001 µM (active) | > 0.01 µM (active) | < 0.0001 µM (active) | < 0.0001 µM (active) | < 0.0001 µM (active) | < 0.0001 µM (active) | < 0.0001 µM (active) | < 0.0001 µM (active) | < 0.0001 µM (active) | < 0.0001 µM (active) | < 0.0001 µM (active) | > 0.01 µM (active) | < 0.0001 µM (active) | > 0.01 µM (active) | < 0.0001 µM (active) | < 0.0001 µM (active) | < 0.0001 µM (active) |
| CCN(CC)C(=S)SS(=O)(=O)c1ccccc1[N+](=O)[O-] | > 100 µM (inactive) | 30.7 µM (inactive) | 14.7 µM (inactive) | 10.2 µM (inactive) | 76.2 µM (inactive) | > 49.2 µM (inactive) | 43.8 µM (inactive) | 27.3 µM (inactive) | 41.3 µM (inactive) | 25 µM (inactive) | 18.6 µM (inactive) | > 35.4 µM (inactive) | 11.7 µM (inactive) | 2.47 µM (inactive) | 44.3 µM (inactive) | > 60 µM (inactive) | > 56.6 µM (inactive) | 15.2 µM (inactive) | 35 µM (inactive) | 18.2 µM (inactive) |
| O=C1/C(=C\c2c(-c3ccccc3)[nH]n(-c3ccccc3)c2=O)C(c2ccccc2)=NN1c1ccccc1 | > 100 µM (inactive) | > 100 µM (inactive) | > 100 µM (inactive) | > 100 µM (inactive) | > 100 µM (inactive) | > 100 µM (inactive) | > 100 µM (inactive) | > 100 µM (inactive) | > 100 µM (inactive) | > 100 µM (inactive) | > 100 µM (inactive) | > 100 µM (inactive) | 87.5 µM (inactive) | > 100 µM (inactive) | > 100 µM (inactive) | > 100 µM (inactive) | > 100 µM (inactive) | > 100 µM (inactive) | > 100 µM (inactive) | > 100 µM (inactive) |
